Test results as given in patent publication US20200061084A1, “USE OF 2AMD AND 2MD TO TREAT FIBROSIS” (WISCONSIN ALUMNI RESEARCH FOUNDATION, priority 2016, published 2020).

How the values were obtained:
[1] = tested on: CsA-induced nephrotoxicity; assay: CsA-induced nephrotoxicity in rats, 28 days: weight, serum BUN and creatinine, urinary protein/creatinine ratio, H&E and picrosirius red histology; assay type: in vivo, Sprague-Dawley male rats; conditions: for Dose sufficient to prevent nephrotoxicity and/or fibrosis without dramatically increasing serum calcium levels: Sprague-Dawley rats; for Picrosirius staining (collagens): kidney sections, birefringence quantified; for Picrosirius staining (collagens) / Serum creatinine / BUN / Urinary protein/creatinine ratio: rats; for Picrosirius staining (collagens) / weight / Serum creatinine / BUN / Urinary protein/creatinine ratio: CsA 20 mg/kg/day, analog 5 ng/kg, daily 28 days; for weight: rats at harvest; for BUN: serum; for Urinary protein/creatinine ratio: spot urine at harvest
Procedure: Rats were randomly assigned to groups of 6 each. Each animal received daily injections under 2% isofluorane. […] Vitamin D analogs were dissolved in polyethylene glycol, 0.5% ethanol (PEG). […] All rats were provided with food and water ad-libitum as per standard procedure. Animals were dosed daily for 28 days with the last dose given approximately 24 h prior to harvest (except for 5 animals receiving 1,25(OH)2D3 which were dosed 48 h prior to harvest). Animals were placed under anesthesia, urine and blood (aorta) were collected and kidneys removed; rats were euthanized by pneumothorax puncture. Kidneys were sectioned longitudinally with one half placed into 10% formalin and the other half snap frozen into liquid nitrogen. Blood was allowed to clot for about 1 h followed by spinning and removing of serum. Tissues in formalin were embedded in paraffin and sectioned for further study. Serum, urine and frozen kidney tissues were stored at -80° C. […] Serum was analyzed for BUN, creatinine and calcium levels. The BUN and creatinine measurements were performed using IDEXX cartridges measured on a […] Chemistry Analyzer. […] Urine testing to determine protein/creatinine ratio was performed using IDEXX cartridges; protein levels were also measured using BCA protein determination. Kidneys fixed in formalin were embedded in paraffin, sectioned and stained with Hematoxilin/eosin and with pricrosirius red, which stains mostly collagens I and III. Stained sections were imaged on an upright brightfield Nikon microscope with polarizer capabilities to assess the birefringence of the picrosirius-stained collagen fibers. Quantization of staining was carried out using Image J from 5 images obtained at random within the central cortical area and excluding blood vessels. For H&E, the eosin staining (pink) prevalent in native tissue was quantified Data was analyzed using Graphpad Prism software with the standard student t-test or One-way Anova operations.

[2] = Serum calcium levels of rats dosed with CsA and vitamin D analogs (atomic absorption spectroscopy); assay type: in vivo, Sprague-Dawley male rats
Procedure: Rats were randomly assigned to groups of 6 each. Each animal received daily injections under 2% isofluorane. […] Vitamin D analogs were dissolved in polyethylene glycol, 0.5% ethanol (PEG). […] All rats were provided with food and water ad-libitum as per standard procedure. Animals were dosed daily for 28 days with the last dose given approximately 24 h prior to harvest (except for 5 animals receiving 1,25(OH)2D3 which were dosed 48 h prior to harvest). Animals were placed under anesthesia, urine and blood (aorta) were collected and kidneys removed; rats were euthanized by pneumothorax puncture. Kidneys were sectioned longitudinally with one half placed into 10% formalin and the other half snap frozen into liquid nitrogen. Blood was allowed to clot for about 1 h followed by spinning and removing of serum. Tissues in formalin were embedded in paraffin and sectioned for further study. Serum, urine and frozen kidney tissues were stored at −80° C.
Serum was analyzed for BUN, creatinine and calcium levels. The BUN and creatinine measurements were performed using IDEXX cartridges measured on a VETTEST Chemistry Analyzer.

[3] = tested on: unilateral ureteral obstruction (UUO) model; assay: Unilateral ureteral obstruction (UUO) model, picrosirius staining of collagen in kidney sections; assay type: in vivo, Male Sprague-Dawley rats
Excerpt: The unilateral ureteral obstruction (UUO) model is a surgical model representing a rodent equivalent of acute kidney injury. Obstruction results in marked dilatation of the ureter together with reduced renal blood flow and glomerular filtration.
Male Sprague-Dawley rats weighing approximately 200-350 g were acclimated and fed ad libitum a standard diet (Teklad 8604 or 2018, Harlan, Madison Wis.). Briefly, under 2% isoflurane anesthesia, the left kidney and ureter were exposed through a midline or a flank incision. The ureter was ligated using 5-0 or 6-0 braided silk suture material. The ligated ureter and kidney were returned to the abdominal cavity and the incision was closed in two layers with interrupted sutures and VETBOND tissue adhesive or staples. The right or contralateral kidney was used as a control. Sham operated animals were treated as the UUO animals except their ureter was not ligated (not shown).
Animals were given buprenorphine (0.05 mg/kg) prior to returning them to their cages where they were kept on standard water and chow until sacrifice at the designated times. Animals were euthanized under CO2, following a midline incision blood was collected via cardiac puncture and the kidneys were removed. The midsection of each kidney was placed in 10% formalin for paraffin embedding and histological staining. […]

## 2α-methyl-19-nor-(20S)-1α,25-dihydroxyvitamin D3 [2AMD]
[1]; 2.5 ng/kg
  Collagen content: reduction in collagen content
[1]; 2AMD at 10 ng/kg
  Decrease of BUN compared to the CsA-treated group: about 30%
[1]; 2AMD at 20 ng/kg
  Serum creatinine, normal (below 0.6 mg/dL) or not: normal in most of the treatment groups except for 2AMD at 20 ng/kg
[1]; CsA + 2AMD 2.5 ng/kg
  Eosinophilic tissue (eosin in H&E-stained kidney) compared to the CsA treated group: promoted an increase in eosinophilic tissue
[1]; CsA + 2AMD 5 ng/kg
  Eosinophilic tissue (eosin in H&E-stained kidney) compared to the CsA treated group: promoted an increase in eosinophilic tissue
[1]; CsA + 2AMD 5 ng/kg, 28 days
  Decrease of the CsA-promoted increase in collagen birefringence (picrosirius red): about 30%
[1]; CsA + 2AMD 5 ng/kg, day of harvest
  Drop in weight from the rats' original weights: 5 g
[1]
  Dose sufficient to prevent nephrotoxicity and/or fibrosis without dramatically increasing serum calcium levels: 5 ng/kg per day
  Picrosirius staining (collagens): 1.8
  weight: 333.8 g
  Serum creatinine: 0.36 mg/dL
  BUN: 28 mg/dL
  Urinary protein/creatinine ratio: 0.2
[1]; all doses of 2AMD (2.5, 5, 10, 20 ng/kg)
  Fibrosis: effective at reducing fibrosis
[1]; analog at 5 ng/kg
  Decrease of BUN compared to the CsA-treated group: about 30%
  Mean UPC lower than the mean UPC for the CsA group: about 74%
[1]; various doses of 2AMD tested
  Dose optimal in nephroprotection: 5 ng/kg rat body weight
[2]; rat, in vivo
  Relationship of serum calcium levels with dose: linear relationship with dose
[3]; 2AMD 5 ng/kg oral daily for 14 days starting on the day of UUO
  Decrease in collagen content (picrosirius staining): 3 fold
[3]; 2AMD 5 ng/kg oral daily, from 7 days prior to UUO to 7 days after UUO (-7+7)
  Decrease in collagen content (picrosirius staining): 3 fold

## C=C1/C(=C\C=C2/CCC[C@]3(C)[C@@H]([C@H](C)CCCC(C)(C)O)CC[C@@H]23)C[C@@H](O)C[C@@H]1O [1,25(OH)2 D3, 1,25(OH)2D3]
[2]; CsA + 1,25(OH)2D3 100 ng/kg, 28 days
  Serum calcium level increase with respect to rats with vehicles or CsA+PEG: about 25%

## C=C1[C@H](O)CC(=C/C=C2\CCCC3(C)C2CCC3[C@@H](C)CCCC(C)(C)O)C[C@H]1O (stereo partly drawn) [2MD, 2-methylene-19-nor-(20S)-1α,25-dihydroxyvitamin D3]
[1]
  Dose sufficient to prevent nephrotoxicity and/or fibrosis without dramatically increasing serum calcium levels: 5 ng/kg per day
  Picrosirius staining (collagens): 1.7
  weight: 317.3 g
  Serum creatinine: 0.33 mg/dL
  BUN: 27 mg/dL
  Urinary protein/creatinine ratio: 0.4
[1]; analog at 5 ng/kg
  Decrease of BUN compared to the CsA-treated group: about 30%
  Mean UPC lower than the mean UPC for the CsA group: about 74%

## cyclosporine [CsA + PEG]
[2]; rats, CsA 20 mg/kg/day, analog 5 ng/kg, daily injection 28 days, blood about 24 h after last dose
  Serum Ca: 8.7 mg/dL
